Source: PMC8578336, “Neuroprotection of retinal ganglion cells by the sigma-1 receptor agonist pridopidine in models of experimental glaucoma” (Scientific Reports, 2021)
Structures can show the parent of a compound that is named as a salt. Where two headings read alike, the source gives them in different places.

Tests used:
Kappa opioid receptor = target: Kappa opioid receptor; set-up: method as in PMID 16125682; conditions: cited from earlier work
S1R = conditions: cited from earlier work
[1] = test system: retinal ganglion cells (RGCs); conditions: for RGC loss (%): OD vs OS eye, mean ± SEM
Description: Hypertonic saline injection (HSI) was performed on day 0 and day 7 into the episcleral veins of the right eye of pigmented Brown Norway rats in order to create a sustained increase of IOP.
Over the course of the study, animals were clinically evaluated daily, and IOP and body weight measured weekly (Fig. 1a).
The number of RGCs was quantified using immunofluorescent staining for the RGC marker brain-specific homeobox/POU domain protein 3A (Brn-3a), followed by image analysis. RGCs were counted in one medial and one distal area in each retinal quadrant, up to eight regions per retina (Fig. 1c, Supp Table 4). The percent of RGC loss was calculated by comparing the number of RGC counts per retina in the OD eye to that in the OS eye. […] Rats were sedated with ketamine and xylazine (40–80 and 5–10 mg/kg, respectively), kept warm and eyes moist to avoid desiccation during the procedure. Eye surface was treated with erythromycin (0.5%). On Days 0 and 7, hypertonic saline solution (250 μL, NaCl, 1.8–2.0 M) was injected into the limbal vascular plexus via different episcleral veins in the OHT eye.
Eyes were immediately enucleated following CO2 euthanasia and fixed in paraformaldehyde (PFA, 4%) at 4 °C for 24 h, then dissected in PBS. Retinas were permeabilized in PBS + 0.5% Triton X-100 for 15 min, frozen at − 80 °C for 15 min, then rinsed in PBS-0.5% Triton. […] Four radial cuts were made in the retina and it was flat-mounted. Two regions of interest (medial and distal) were acquired in each quadrant with fluorescent microscopy, and RGCs counted using ImageJ.

human lymphoblasts [2] = conditions: 5 μM pretreatment 24 h; H2O2 0.1 mM 6 h; p < 0.0001
Description: (§1) ROS levels were quantified by co-staining with CellRox and DAPI. (a) Representative image and (b) quantification. […] Data is the mean ± SEM. *p < 0.05, ***p < 0.001, ****p < 0.0001 by two-way ANOVA with a Tukey’s multiple comparisons in (b), by non-parametric Mann–Whitney in (d), or Kruskal–Wallis test in (c) and (e). Full-length blots are presented in Supplementary Fig. 2.
(§2) Lymphoblasts (Corriel Institute, GM02174) were grown in RPMI medium containing 10% FBS, 2 mM L-glutamax, and 100 U/mL penicillin–streptomycin and passaged every 5–6 days. […] S1R knockdown was achieved using S1R-directed siRNA duplexes (Origene, cat no: SR426072). Transfection with Polyplus JETPRIME transfection protocol was performed 48 h before experiments. S1R knockdown was assessed by immunoblot.

striatal neurons = conditions: 1 μM, 24 h; NMDA 10 µM + glycine 20 µM 15 min; p = 0.0072
Description: (§3) (b) Quantification of OCR rate. […] Mitochondrial membrane potential was measured in isolated striatal mitochondria using Rhodamine123 (d) and quantified (e). […] Data are the mean ± SEM. All experiments were run in triplicates. *p < 0.05, **p < 0.01 by non-parametric Kruskal–Wallis test or Mann–Whitney test (in e).
Striatal neurons were isolated as previously described[78] from embryos at gestational day 16–17.

optic nerve axons = conditions: for Loss of optic nerve axons vs. control eye (difference): 14 days; for Number of optic nerve axons, mean: 125/55 criterion
Description: (§4) The laser coagulation (LC) model of experimental glaucoma was utilized in Wistar rats. Additional benefits of using this model are avoiding idiosyncratic features inherent to a single model and increasing the likelihood of future translatability to human glaucoma[28],[29]. Both models utilize elevation of IOP, but to different degrees and with different time courses. Unilateral induction of IOP elevation was performed twice, at day 0 and day 7. […] IOP was measured at baseline, and after laser photocoagulation on days 1, 4, 7, 8, and 14 (Fig. 3a). At the end of the study, RGC numbers were assessed by immunostaining (Fig. 3b).
Neuroprotective preservation of visual function in glaucoma and other optic neuropathies depends not only on preservation of cell bodies, but also on maintaining connectivity between the eye and the brain. Connectivity is preserved by protecting RGC axons[31]–[33], i.e. axoprotection. To study this, the number of optic nerve axons per optic nerve area was compared between different treatment groups (Fig. 4a,b). […] Compounds were administered daily by oral gavage. On day 14 rats were sacrificed by transcardial perfusion, first with 0.9% NaCl solution, then with 4% PFA in 0.1 M phosphate buffer, pH 7.4. Eyes and optic nerves were collected for immunohistochemical analysis.
Optic nerves were postfixed in 4% PFA (in 0.1 M phosphate buffer, pH 7.4), placed in 1% osmium, dehydrated in ascending alcohol concentrations, and placed in 1% uranyl acetate in 100% ethanol for 1 h[76],[77]. Optic nerves were embedded in epoxy resin mixture at 60 °C for 48 h and 1 µm sections prepared. Axon number was estimated using stereology, as previously described.

[3] = test system: isolated striatal mitochondria; conditions: 30 mg/kg daily for 45 days; p = 0.0013
Description: as §3

human lymphoblasts [4] = conditions: 5 µM, 24 h
Description: as §1
Mitochondrial function was then assessed with the MMP-dependent probe TMRE (tetramethylrhodamine ethyl ester).
as §2

[5] = test system: retinal ganglion cells (RGCs); conditions: for Loss of RBPMS-positive RGCs, lasered vs control eye (difference): 14 days; for Number of RGCs per retinal area, mean: 125/55 criterion
Description: as §4
The number of RGCs was quantified using immunofluorescent staining for RNA-binding protein with multiple splicing (RBPMS), an RGC-specific marker, followed by stereological analysis of the entire retina[30] (Fig. 3c).
IOP was measured with a TonoLab tonometer.
Compounds were administered daily by oral gavage. On day 14 rats were sacrificed by transcardial perfusion, first with 0.9% NaCl solution, then with 4% PFA in 0.1 M phosphate buffer, pH 7.4. Eyes and optic nerves were collected for immunohistochemical analysis.
Retinal flat-mounts were immunostained with rabbit anti-RBPMS (PhosphoSolutions) and DAPI nuclear stain. Total number of RBPMS-positive cells was estimated using stereology as previously described.

[6] = test system: mouse striatal neuronal cultures; conditions: 1 μM, 24 h
Description: as §3, with “Previous studies have shown a regulatory role of the S1R in mitochondrial function in retinal ganglion cells under stress[36]–[39]. […] (b)” for “(b)”
Striatal neurons were isolated as previously described[78] from embryos at gestational day 16–17. […] Pridopidine was added for 24 h.

[7] = target: empopamil binding protein (EBP); set-up: method as in PMID 11377189; conditions: cited from earlier work

CC(C)=CCN1CC[C@]2(C)c3cc(O)ccc3C[C@H]1[C@H]2C [PTZ, (+)pentazocine]
Ki (Kappa opioid receptor): 2.2 nM

CCCN1CCC(c2cccc(S(C)(=O)=O)c2)CC1 [Pridopidine]
Ki (S1R): 57 nM | RGC loss (%) ([1]; 3 mg/kg daily oral gavage day 1-41): 25 ± 7% | Mean RGC count/animal ([1]; 3 mg/kg, OD eye): 105.25 | Mean RGC count/animal ([1]; 3 mg/kg, OS eye): 144.75 | RGC loss (%) ([1]; 30 mg/kg daily oral gavage day 1-41): 21 ± 6% | Mean RGC count/animal ([1]; 30 mg/kg, OD eye): 122.78 | Mean RGC count/animal ([1]; 30 mg/kg, OS eye): 158.56 | RGC neuroprotection compared to vehicle control ([1]; 30 mg/kg, p = 0.019): 50% | RGC loss (%) ([1]; 60 mg/kg daily oral gavage day 1-41): 7 ± 9% | Mean RGC count/animal ([1]; 60 mg/kg, OD eye): 116.50 | Mean RGC count/animal ([1]; 60 mg/kg, OS eye): 130.40 | RGC neuroprotection compared to vehicle control ([1]; 60 mg/kg, p = 0.005): 83% | H2O2-induced ROS production (CellRox staining) (human lymphoblasts [2]): significantly ameliorated | Mitochondrial membrane potential (MMP) after NMDA plus glycine (striatal neurons): rescues the decrease in MMP | Axoprotection of optic nerves compared to the vehicle group (optic nerve axons; 3 mg/kg): 69% | Loss of optic nerve axons vs. control eye (difference) (optic nerve axons; 3 mg/kg daily oral, p = 0.006): 8.6% | Number of optic nerve axons, mean (optic nerve axons; 3 mg/kg, control eye): 394 | Number of optic nerve axons, mean (optic nerve axons; 3 mg/kg, lasered eye): 358 | Axoprotection of optic nerves compared to the vehicle group (optic nerve axons; 30 mg/kg): 45% | Loss of optic nerve axons vs. control eye (difference) (optic nerve axons; 30 mg/kg daily oral, p = 0.04): 15% | Number of optic nerve axons, mean (optic nerve axons; 30 mg/kg, control eye): 433 | Number of optic nerve axons, mean (optic nerve axons; 30 mg/kg, lasered eye): 363 | Axoprotection of optic nerves compared to the vehicle group (optic nerve axons; 60 mg/kg): 74% | Loss of optic nerve axons vs. control eye (difference) (optic nerve axons; 60 mg/kg daily oral, p = 0.002): 7.6% | Number of optic nerve axons, mean (optic nerve axons; 60 mg/kg, control eye): 395 | Number of optic nerve axons, mean (optic nerve axons; 60 mg/kg, lasered eye): 365 | MMP in isolated mitochondria from treated mice [3]: increase in MMP | H2O2-induced reduction of MMP (TMRE) (human lymphoblasts [4]; S1R genetically silenced with siRNA): unable to rescue MMP | H2O2-induced reduction of MMP (TMRE) (human lymphoblasts [4]; S1R-expressing cells, p = 0.0002): rescues this effect | Loss of RBPMS-positive RGCs, lasered vs control eye (difference) ([5]; 3 mg/kg daily oral): 5.2% | Number of RGCs per retinal area, mean ([5]; 3 mg/kg, control eye): 1404 | Number of RGCs per retinal area, mean ([5]; 3 mg/kg, lasered eye): 1315 | Loss of RBPMS-positive RGCs, lasered vs control eye (difference) ([5]; 30 mg/kg daily oral): 7.7% | Number of RGCs per retinal area, mean ([5]; 30 mg/kg, control eye): 1444 | Number of RGCs per retinal area, mean ([5]; 30 mg/kg, lasered eye): 1336 | Loss of RBPMS-positive RGCs, lasered vs control eye (difference) ([5]; 60 mg/kg daily oral): 13.9% | Number of RGCs per retinal area, mean ([5]; 60 mg/kg, control eye): 1417 | Number of RGCs per retinal area, mean ([5]; 60 mg/kg, lasered eye): 1198 | ATP production ([6]; p = 0.0015): significantly increases | Maximal mitochondrial respiration ([6]; p = 0.0061): significantly increases | Basal mitochondrial respiration ([6]; p = 0.0082): significantly increases

COc1ccc(CCN2CCN(CCCc3ccccc3)CC2)cc1OC [SA4503, cutamesine dihydrochloride, reference compound]
Ki [7]: 1.72 nM | Ki (S1R): 17.4 nM
